The values below come from article PMC3845832 (Clinical cancer research : an official journal of the …, 2013).

One series can be described thus: clinical. The conditions noted are these: human, in vivo.
Another series deals with refractory CLL patients. The conditions noted are these: pharmacokinetically guided dosing, cited from earlier work.
For series [1], the system named is CLL patients. The conditions noted are these: cited from earlier work.
The subject of series [2] is CLL patients. The note with it: human, in vivo.
Series [3] relates to CLL patients. Kind of series: Tumor lysis syndrome. Type of series: in vivo, human.
A further series concerns UGT1A1 or UGT1A4. The note with it: in vitro; cited from earlier work.
The next series relates to UGT1A9. The note with it: in vitro; cited from earlier work.
Series [4] deals with CLL patients. Briefly: Population PK-PD logistic regression model of TLS probability in Cycle 1. The note with it: linear function, day 1 or 8; p<0.01 for significance.
A short description of series [5]: Dinaciclib clearance pathways. The note with it: unpublished data.

Read-outs that look alike come from different tables or passages of the source.

In general, Vd refers to a proportionality between amount in the body and measured concentration, not a real space. High values mean extensive tissue distribution, low ones confinement near the circulation. In general, clearance refers to a measure of how efficiently the substance is removed, as volume per time. The low end stands for a low capacity for elimination, the high end for a high capacity for elimination. Turning to `CN1CC[C@H](c2c(O)cc(O)c3c(=O)cc(-c4ccccc4Cl)oc23)[C@H](O)C1` [flavopiridol], the “Lower CL in females compared to males” value in the series “clinical” (both) was found to be 12.3%. This compound also displayed a Vd in the series “clinical” of 75.8 L. The clearance in the series “clinical” (iv) is 568 mL/min. Further, the “Patients achieving objective responses” value was 40% in the series with refractory CLL patients (phase I trial) and 53% in the series on refractory CLL patients (phase II trial). Further, the “Patients in whom TLS (dose-limiting toxicity) was observed” value in the series with CLL patients [1] (two trials, pharmacokinetically guided dosing regimen) was 53 out of 116. The “Exposure (Cmax or AUC) as predictor of TLS in the model” value with CLL patients [2] is “did not improve the model”. Also, the “Patients who had TLS in the first cycle” value with CLL patients [3] (111 patients of phase I and II studies) was 43%. Besides, the “Number of patients having TLS” value in the series on CLL patients [3] (Day 1, Cycle 1) amounted to 25.
For `CN1CCC(c2c(O)cc(O[C@@H]3O[C@H](C(=O)O)[C@@H](O)[C@H](O)[C@H]3O)c3c(=O)cc(-c4ccccc4Cl)oc23)C(O)C1` (stereo partly drawn) [Flavo-5-G, 5-O-β-glucopyranuronosyl-flavopiridol], the “Share of glucuronidation product” value in the series with UGT1A1 or UGT1A4 was “minor glucuronidation product”.
Turning to `CN1CC[C@H](c2c(O[C@@H]3O[C@H](C(=O)O)[C@@H](O)[C@H](O)[C@H]3O)cc(O)c3c(=O)cc(-c4ccccc4Cl)oc23)[C@H](O)C1` [Flavo-7-G, 7-O-β-glucopyranuronosyl-flavopiridol], the “Share of glucuronidation product” value in the series with UGT1A9 is on record as 98.5%.
Take flavopiridol glucuronide [flavo-G]: in the series “clinical”, the “AUC, median value” turned out to be 13600 ng·h/mL and the “AUC, range” value fell in the range of 3210 to 141000 ng·h/mL. Besides, in the series with CLL patients [4], the “Exposure (Cmax or AUC) as predictor of TLS in the model” value is recorded as “significant decrease in OFV”.
Regarding `CCc1cnn2c(NCc3ccc[n+]([O-])c3)cc(N3CCCC[C@H]3CCO)nc12` [dinaciclib], in series [5], the “Role of glucuronidation in clearance” value is “clearly important”. In addition, the “TLS in treated CLL patients” value with CLL patients [1] is recorded as “observed”.
